Source: ChEMBL document CHEMBL1201862, “PubChem BioAssay data set” (2004)
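Method: 48-hour compound exposure of cells in 96-well plates, five concentrations, linear interpolation of endpoints. At the GI50, growth is halved.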 Calls of active or inactive are those of the source. No stated cut-off is given here; in the data, active = GI50 up to about 1.1 µM and inactive = higher.

Columns and labels:
Assay in all cases: NCI tumour cell line growth inhibition, 48 h
[1] = test system: HCC 2998
[2] = test system: HT-29
[3] = test system: SK-MEL-28
[4] = test system: TK-10
[5] = test system: LOX IMVI
[6] = test system: SF-539
[7] = test system: NCI-H460
[8] = test system: HCT-15
[9] = test system: COLO 205
[10] = test system: OVCAR-4
[11] = test system: U-251
[12] = test system: HL-60
[13] = test system: A549
[14] = test system: MDA-MB-435
[15] = test system: MDA-N
[16] = test system: RXF 393
[17] = test system: KM12
[18] = test system: HOP-62
[19] = test system: NCI-H226
[20] = test system: SR

| Compound | GI50 [1] | GI50 [2] | GI50 [3] | GI50 [4] | GI50 [5] | GI50 [6] | GI50 [7] | GI50 [8] [µM] | GI50 [9] | GI50 [10] | GI50 [11] | GI50 [12] | GI50 [13] | GI50 [14] | GI50 [15] | GI50 [16] | GI50 [17] | GI50 [18] | GI50 [19] | GI50 [20] |
| --- | --- | --- | --- | --- | --- | --- | --- | --- | --- | --- | --- | --- | --- | --- | --- | --- | --- | --- | --- | --- |
| CC(=O)Nc1ccc(OC/C(N)=N/NC(=O)c2ccncc2)cc1 | > 100 µM (inactive) | > 100 µM (inactive) | > 100 µM (inactive) | > 100 µM (inactive) | > 100 µM (inactive) | > 100 µM (inactive) | > 100 µM (inactive) | > 100 | > 100 µM (inactive) | > 100 µM (inactive) | > 100 µM (inactive) | > 100 µM (inactive) | > 100 µM (inactive) | > 100 µM (inactive) | > 100 µM (inactive) | > 100 µM (inactive) | > 100 µM (inactive) | > 100 µM (inactive) |  |  |
| O=C1C=C(Nc2ccccc2C(=O)CC(=O)C(=O)Nc2ccc(Cl)cc2)c2ccccc2C1=O | 17.5 µM (inactive) | 41.5 µM (inactive) | 16.7 µM (inactive) | > 74.5 µM (inactive) | 1.93 µM (inactive) | 20.1 µM (inactive) | 16.3 µM (inactive) | 10.6 | 17.9 µM (inactive) | 10.9 µM (inactive) | 20.1 µM (inactive) | 3.32 µM (inactive) | 14.4 µM (inactive) |  |  | 11.5 µM (inactive) | 14.6 µM (inactive) | 17.7 µM (inactive) | 24.4 µM (inactive) | > 100 µM (inactive) |
| CCC(C)C(NC(=O)c1c2ccccc2nc2ccccc12)C(=O)O (configuration not stated) | > 100 µM (inactive) | 75.9 µM (inactive) | > 100 µM (inactive) | > 100 µM (inactive) | 74 µM (inactive) | 60.7 µM (inactive) | > 100 µM (inactive) | 41 | > 100 µM (inactive) | > 100 µM (inactive) | > 100 µM (inactive) |  | 77.3 µM (inactive) | 79.1 µM (inactive) |  |  | > 100 µM (inactive) | > 100 µM (inactive) | > 100 µM (inactive) | > 100 µM (inactive) |
| N=C(/C=C/c1ccc(-c2cn3cc(/C=C/C(=N)N4CCOCC4)ccc3n2)cc1)N1CCOCC1 | > 100 µM (inactive) |  | > 100 µM (inactive) | > 100 µM (inactive) |  | > 100 µM (inactive) | > 100 µM (inactive) | > 100 | > 100 µM (inactive) | > 100 µM (inactive) | > 100 µM (inactive) |  | > 100 µM (inactive) | > 100 µM (inactive) | > 100 µM (inactive) | > 100 µM (inactive) | > 100 µM (inactive) | > 100 µM (inactive) | > 100 µM (inactive) |  |
| O=C1OC(CC(=O)c2ccc(Cl)cc2Cl)C(Cl)=C1Cl (configuration not stated) | 15.8 µM (inactive) | 18.7 µM (inactive) | 19.1 µM (inactive) | > 55.5 µM (inactive) | 24.5 µM (inactive) | 22 µM (inactive) | > 57.3 µM (inactive) | 29.3 | 20.8 µM (inactive) | 42.6 µM (inactive) | 27.6 µM (inactive) | 26.7 µM (inactive) | > 100 µM (inactive) |  |  | 18.2 µM (inactive) | > 100 µM (inactive) | > 59.2 µM (inactive) | 30 µM (inactive) | 26.5 µM (inactive) |
| Cc1n[n+](Cc2ccccc2)c2sc(N)nn12 |  | 59 µM (inactive) | > 100 µM (inactive) | > 100 µM (inactive) | > 100 µM (inactive) | > 100 µM (inactive) | > 10 µM (inactive) | > 100 | > 100 µM (inactive) | > 100 µM (inactive) | > 100 µM (inactive) |  | > 100 µM (inactive) | > 100 µM (inactive) | > 100 µM (inactive) | > 100 µM (inactive) | > 100 µM (inactive) | > 100 µM (inactive) | 74 µM (inactive) |  |
| C1=CC=C2NCCCCCC/N=C3\C=CC=CC=C3NCCc3cccc(c3)CC/N=C/2C=C1 | 10 µM (inactive) | 6.07 µM (inactive) |  |  | 4.63 µM (inactive) | 10.8 µM (inactive) | 5.42 µM (inactive) | 15.8 | 14.3 µM (inactive) | 12.7 µM (inactive) | 18.7 µM (inactive) | 5.43 µM (inactive) | 35.2 µM (inactive) |  |  | 13.4 µM (inactive) | 14.7 µM (inactive) | 10 µM (inactive) | 32.5 µM (inactive) | 9.82 µM (inactive) |
| O=C(Cn1c2ccc(Br)cc2c2nc3ccccc3nc21)N1CCOCC1 | > 100 µM (inactive) | > 100 µM (inactive) | > 100 µM (inactive) | > 100 µM (inactive) | 39.8 µM (inactive) |  | > 100 µM (inactive) | > 100 | > 100 µM (inactive) | > 100 µM (inactive) | > 100 µM (inactive) |  | 98.4 µM (inactive) | > 100 µM (inactive) | > 100 µM (inactive) | 21.3 µM (inactive) | > 100 µM (inactive) | > 100 µM (inactive) | > 100 µM (inactive) |  |
